Source: US6022901A, “Administration of resveratrol to prevent or treat restenosis following coronary intervention” (priority 1998, dated 2000)

test system: common iliac artery of high cholesteric rabbits; experiment: Restenosis/thrombus model: balloon injury of common iliac artery in high cholesteric rabbits, local administration, angioscopy; assay type: in vivo, rabbit; details: after one month; trans-resveratrol + heparin (1:100) compared with heparin only, P<0.05
Method: The procedure of U.S. Pat. No. 5,595,974 to Tomaru may be used to evaluate the utility of trans-resveratrol in preventing restenosis in high cholestereric rabbits, as follows:
An injectable trans-resveratrol solution is prepared containing the following components: 10 mg trans-resveratrol; 3 mg chlorobutanol (preservative); 0.1 mg gelatin hydrolyzate (stabilizer); 9 mg sodium chloride (isotonic agent); and distilled water containing 2% dimethyl sulfoxide ("DMSO") for injection (to 1 mL).
Common iliac arteries of high cholesteric rabbits to which a diet containing 2% of cholesterol is loaded for a month are used as a model for restenosis, wherein the model consists of (1) a heparin group with seven male rabbits and (2) trans-resveratrol solution combined with th seven male rabbits, weighing between 2.5 kg and 3 kg, respectively. […]
Post-operatively, the percent luminal obstruction (%) of both the control side and the drug administered side are compared by continuing the load of high cholesterol for one month. That is, effects for preventing stenosis by local administration of trans-resveratrol is evaluated by angioscopic visualization after one month from vascular injury to compare the percent luminal obstruction (%) caused by intima pachymenia.
The percent luminal obstruction (%) is calculated by the following equation: […]

Row | SMILES | percent luminal obstruction (%)
1 | Oc1ccc(/C=C/c2cc(O)cc(O)c2)cc1 [trans-resveratrol] | remarkably reduced percent luminal obstruction (%)

test system: low-density lipoproteins; experiment: not given; details: cited from earlier work

Row | SMILES | protection of low-density lipoproteins against oxidation
2 | OC[C@H]1O[C@@H](Oc2cc(O)cc(/C=C\c3ccc(O)cc3)c2)[C@H](O)[C@@H](O)[C@@H]1O [cis-resveratrol glucoside] | protect low-density lipoproteins against oxidation
3 | Oc1ccc(/C=C\c2cc(O)cc(O)c2)cc1 [cis-resveratrol] | protect low-density lipoproteins against oxidation
4 | C[C@@H]1O[C@@H](OC[C@H]2O[C@@H](Oc3c(-c4ccc(O)c(O)c4)oc4cc(O)cc(O)c4c3=O)[C@H](O)[C@@H](O)[C@@H]2O)[C@H](O)[C@H](O)[C@H]1O [rutin, reference compound] | protect low-density lipoproteins against oxidation
5 | Oc1cc(O)c2c(c1)OC(c1ccc(O)c(O)c1)C(O)C2 (stereo not drawn) [catechin, reference compound] | protect low-density lipoproteins against oxidation
6 | O=c1c(O)c(-c2ccc(O)c(O)c2)oc2cc(O)cc(O)c12 [quercetin, reference compound] | protect low-density lipoproteins against oxidation
7 | OC[C@H]1O[C@@H](Oc2cc(O)cc(/C=C/c3ccc(O)cc3)c2)[C@H](O)[C@@H](O)[C@@H]1O [trans-resveratrol glucoside] | protect low-density lipoproteins against oxidation
8 | Oc1ccc(/C=C/c2cc(O)cc(O)c2)cc1 [trans-resveratrol] | protect low-density lipoproteins against oxidation
9 | Oc1cc(O)c2c(c1)O[C@H](c1ccc(O)c(O)c1)[C@H](O)C2 [epicatechin, reference compound] | protect low-density lipoproteins against oxidation
